Where two headings read alike, the source gives them in different places.
Columns and labels:
CLso = assay type: cell-based, Candidatus Liberibacter solanacearum; conditions: 48 h treatment, CLso-potato hairy roots
Lso = assay type: cell-based, Candidatus Liberibacter solanacearum; conditions: 100 mg/L penicillin

Molecule: CC/C=C\CC1C(=O)CCC1CC(=O)OC (stereo not shown) [methyl-JA, methyl jasmonate]
- relative CLso titers versus DMSO control (CLso; 10 uM): suppressed CLso
- relative CLso titers versus DMSO control (CLso; 10 uM, listed as methyl-jasmonate): decreased CLso titers

Molecule: O=C(O)c1ccccc1O [salicylic acid]
- relative CLso titers versus DMSO control (CLso; 100 uM): no significant effect

Molecule: penicillin
- relative CLso titers versus DMSO control (CLso; 100 ppm): significantly suppressed CLso titers
- relative CLso titers versus DMSO control (CLso; 100 ppm, listed as Penicillin): decreased CLso titers
- Lso titer versus Lso colonized hairy roots not exposed (Lso; 2 days of exposure): significantly lower titer of Lso
- Lso titer versus Lso colonized hairy roots not exposed (Lso; 7 days of exposure): significantly lower titer of Lso
